Here are results for 25 molecules from patent US9156860B2, “Boron-containing small molecules” (Anacor Pharmaceuticals, Inc., priority 2011, dated 2015).

One test has as its system Lone star tick larvae (Amblyomma americanum). Put plainly: Larval immersion microassay against larval-stage Lone star ticks. To be noted: Amblyomma americanum, 24 h, read-out: activity (percent larval mortality). On the procedure:
The larval immersion microassay was conducted as described in detail in White, et al., J. Med. Entomol. […] Compounds of the invention were formulated in dimethylsulfoxide (DMSO) to prepare a stock solution at a concentration of at least 10 mM. […] Approximately 30-50 Lone star tick larvae (Amblyomma americanum) were submerged into each well containing compounds. After a 30 minute immersion period, larvae were removed with a wide-bore pipette tip in 0.05 ml of fluid, dispensed into a commercial paper tissue biopsy bag which was sealed at the top with a plastic dialysis clip, inverted and allowed to air dry for 60 minutes. Bags containing larvae were then incubated at approximately 27 degrees Celsius and >90% relative humidity. After 24 hours, bags were opened, live and dead larvae were counted and percent larval mortality was calculated.
7 contains one chiral center, and is therefore a racemic mixture comprised of approximately 50% R- and 50% S-enantiomer. In vitro and surrogate animal (rat) studies were conducted to evaluate the biological activity of the R- and S-enantiomers of 7. For the in vitro study, larvae of the Lone star tick (Amblyomma americanum) were exposed to 17 (S-enantiomer) and 18 (R-enantiomer) using the larval immersion microassay at a concentration of no greater than 0.3 mM. Following exposure, larvae were removed, transferred to a tissue biopsy bag and incubated at approximately 27 degrees Celsius and >90% relative humidity. After 24 hours, biopsy bags were opened and the numbers of live and dead larvae were determined.
`OB1OCc2cc(C3=NOC(c4cc(Cl)cc(Cl)c4)(C(F)(F)F)C3)ccc21` (stereo not shown) [Compound 1, 5-(5-(3,5-Dichlorophenyl)-5-(trifluoromethyl)-4,5-dihydroisoxazol-3-yl)benzo[c][1,2]oxaborol-1(3H)-ol]: the mortality at 300 µM was no less than 80%. Take `CC1(C)OB(O)c2ccc(C3=NOC(c4cc(Cl)cc(Cl)c4)(C(F)(F)F)C3)cc21` (stereo not shown) [Compound 2, 5-(5-(3,5-Dichlorophenyl)-5-(trifluoromethyl)-4,5-dihydroisoxazol-3-yl)-3,3-dimethyl-benzo[c][1,2]oxaborol-1(3H)-ol]: the mortality at 300 µM was no less than 80%. The same measure, in the same setting: the result for `CC1(C)OB(O)c2ccc(C3=NO[C@@](c4cc(Cl)cc(Cl)c4)(C(F)(F)F)C3)cc21` [Compound 3, (S)-5-(5-(3,5-dichlorophenyl)-5-(trifluoromethyl)-4,5-dihydroisoxazol-3-yl)-3,3-dimethyl benzo[c][1,2]oxaborol-1(3H)-ol] reads no less than 80%; that for `CC1(C)OB(O)c2ccc(C3=NOC(c4cc(Cl)cc(C(F)(F)F)c4)(C(F)(F)F)C3)cc21` (stereo not shown) [Compound 6], no less than 80%; that for `Cc1c(Cl)cc(C2(C(F)(F)F)CC(c3ccc4c(c3)C(C)(C)OB4O)=NO2)cc1Cl` (stereo not shown) [Compound 9, 5-(5-(3,5-Dichloro-4-methylphenyl)-5-(trifluoromethyl)-4,5-dihydroisoxazol-3-yl)-3,3-dimethylbenzo[c][1,2]oxaborol-1(3H)-ol], no less than 80%. On the same count and under the same terms, the result for `CC1(C)OB(O)c2ccc(C3=NOC(c4cc(Cl)c(C(F)(F)F)c(Cl)c4)(C(F)(F)F)C3)cc21` (stereo not shown) [Compound 10, 5-(5-(3,5-Dichloro-4-(trifluoromethyl)phenyl)-5-(trifluoromethyl)-4,5-dihydroisoxazol-3-yl)-3,3-dimethyl-benzo[c][1,2]oxaborol-1(3H)-ol] reads no less than 80%.

For the molecule `CC1(C)OB(O)c2ccc(C3=NOC(c4cc(Cl)c(C(F)F)c(Cl)c4)(C(F)(F)F)C3)cc21` (stereo not shown) [Compound 11, 5-(5-(3,5-Dichloro-4-(difluoromethyl)phenyl)-5-(trifluoromethyl)-4,5-dihydroisoxazol-3-yl)-3,3-dimethyl-benzo[c][1,2]oxaborol-1(3H)-ol], the mortality at 300 µM is no less than 80%. With `CC1(C)OB(O)c2ccc(C3=NOC(c4cc(Cl)c(OC(F)(F)F)c(Cl)c4)(C(F)(F)F)C3)cc21` (stereo not shown) [Compound 12, 5-(5-(3,5-Dichloro-4-(trifluoromethoxy)phenyl)-5-(trifluoromethyl)-4,5-dihydro-isoxazol-3-yl)-3,3-dimethylbenzo[c][1,2]oxaborol-1(3H)-ol], the mortality at 300 µM was no less than 80%. Still for that read-out and setting: the result for `CC1(C)OB(O)c2ccc(C3=NOC(c4cc(C(F)(F)F)cc(C(F)(F)F)c4)(C(F)(F)F)C3)cc21` (stereo not shown) [Compound 14, 5-(5-(3,5-Bis(trifluoromethyl)phenyl)-5-(trifluoromethyl)-4,5-dihydroisoxazol-3-yl)-3,3-dimethylbenzo[c][1,2]oxaborol-1(3H)-ol] reads no less than 80%. The same measure, in the same setting: the result for `CC1(C)OB(O)c2ccc(C3=NOC(c4cc(Cl)c(Br)c(Cl)c4)(C(F)(F)F)C3)cc21` (stereo not shown) [Compound 21, 5-(5-(4-Bromo-3,5-dichlorophenyl)-5-(trifluoromethyl)-4,5-dihydroisoxazol-3-yl)-3,3-dimethylbenzo[c][1,2]oxaborol-1(3H)-ol] reads no less than 80%; that for `COc1c(Cl)cc(C2(C(F)(F)F)CC(c3ccc4c(c3)C(C)(C)OB4O)=NO2)cc1Cl` (stereo not shown) [Compound 22, 5-(5-(3,5-Dichloro-4-methoxyphenyl)-5-(trifluoromethyl)-4,5-dihydroisoxazol-3-yl)-3,3-dimethylbenzo[c][1,2]oxaborol-1(3H)-ol], no less than 80%; that for `CC1(C)OB(O)c2ccc(C3=NO[C@@](c4cc(Cl)c(F)c(Cl)c4)(C(F)(F)F)C3)cc21` [Compound 28, (S)-5-(5-(3,5-Dichloro-4-fluorophenyl)-5-(trifluoromethyl)-4,5-dihydroisoxazol-3-yl)-3,3-dimethylbenzo[c][1,2]oxaborol-1(3H)-ol], no less than 80%. For `CC1(C)OB(O)c2ccc(C3=NOC(c4cc(Cl)c(Cl)c(Cl)c4Cl)(C(F)(F)F)C3)cc21` (stereo not shown) [Compound 34, 3,3-Dimethyl-5-(5-(2,3,4,5-tetrachlorophenyl)-5-(trifluoromethyl)-4,5-dihydroisoxazol-3-yl)benzo[c][1,2]oxaborol-1(3H)-ol], the mortality at 300 µM was no less than 80%. Regarding `CC1(C)OB(O)c2ccc(C3=NOC(c4cc(Cl)c(F)c(Cl)c4F)(C(F)(F)F)C3)cc21` (stereo not shown) [Compound 35], the mortality at 300 µM is no less than 80%.

On to `CC1(C)OB(O)c2cc(F)c(C3=NOC(c4cc(Cl)cc(Cl)c4)(C(F)(F)F)C3)cc21` (stereo not shown) [Compound 41], for which the mortality at 300 µM is no less than 80%. Still for that read-out and setting: the result for `CC1(C)OB(O)c2cc(F)c(C3=NOC(c4cc(Cl)c(Cl)c(Cl)c4)(C(F)(F)F)C3)cc21` (stereo not shown) [Compound 42, 6-Fluoro-3,3-dimethyl-5-(5-(3,4,5-trichlorophenyl)-5-(trifluoromethyl)-4,5-dihydroisoxazol-3-yl)benzo[c][1,2]oxaborol-1(3H)-ol] reads no less than 80%.

Still in this test, the particulars now being: Amblyomma americanum; concentration of no greater than 0.3 mM; 30 minute immersion; counted after 24 hours; read-out: activity (percent larval mortality).
On to `CC1(C)OB(O)c2ccc(C3=NOC(c4cc(Br)cc(Br)c4)(C(F)(F)F)C3)cc21` (stereo not shown) [Compound 5, 5-(5-(3,5-Dibromophenyl)-5-(trifluoromethyl)-4,5-dihydroisoxazol-3-yl)-3,3-dimethyl-benzo[c][1,2]oxaborol-1(3H)-ol], for which the mortality at 300 µM is no less than 80%. Consider `CC1(C)OB(O)c2ccc(C3=NOC(c4ccc(F)c(Cl)c4)(C(F)(F)F)C3)cc21` (stereo not shown) [Compound 19, 5-(5-(3-Chloro-4-fluorophenyl)-5-(trifluoromethyl)-4,5-dihydroisoxazol-3-yl)-3,3-dimethylbenzo[c][1,2]oxaborol-1(3H)-ol], for which the mortality at 300 µM was no less than 80%.

Regarding `CC1(C)OB(O)c2ccc(C3=NOC(c4ccc(Cl)c(Cl)c4)(C(F)(F)F)C3)cc21` (stereo not shown) [Compound 23, 5-(5-(3,4-Dichlorophenyl)-5-(trifluoromethyl)-4,5-dihydroisoxazol-3-yl)-3,3-dimethyl-benzo[c][1,2]oxaborol-1(3H)-ol], the mortality at 300 µM was no less than 80%. Consider `CC1(C)OB(O)c2ccc(C3=NOC(c4ccc(F)c(C(F)(F)F)c4)(C(F)(F)F)C3)cc21` (stereo not shown) [Compound 24, 5-(5-(4-Fluoro-3-(trifluoromethyl)phenyl)-5-(trifluoromethyl)-4,5-dihydroisoxazol-3-yl)-3,3-dimethylbenzo[c][1,2]oxaborol-1(3H)-ol], for which the mortality at 300 µM was no less than 80%. On the same count and under the same terms, the result for `CC1(C)OB(O)c2ccc(C3=NOC(c4cc(F)c(F)c(Cl)c4)(C(F)(F)F)C3)cc21` (stereo not shown) [Compound 25, 5-(5-(3-Chloro-4,5-difluorophenyl)-5-(trifluoromethyl)-4,5-dihydroisoxazol-3-yl)-3,3-dimethylbenzo[c][1,2]oxaborol-1(3H)-ol] reads no less than 80%; that for `CC1(C)OB(O)c2ccc(C3=NOC(c4cc(F)c(Cl)c(Cl)c4)(C(F)(F)F)C3)cc21` (stereo not shown) [Compound 26, 5-(5-(3,4-Dichloro-5-fluorophenyl)-5-(trifluoromethyl)-4,5-dihydroisoxazol-3-yl)-3,3-dimethylbenzo[c][1,2]oxaborol-1(3H)-ol], no less than 80%. In the case of `CC1(C)OB(O)c2ccc(C3=NOC(c4cc(Br)c(Cl)c(Br)c4)(C(F)(F)F)C3)cc21` (stereo not shown) [Compound 27, 5-(5-(3,5-Dibromo-4-chlorophenyl)-5-(trifluoromethyl)-4,5-dihydroisoxazol-3-yl)-3,3-dimethylbenzo[c][1,2]oxaborol-1(3H)-ol], the mortality at 300 µM is no less than 80%. The same measure, in the same setting: to `CC1(C)OB(O)c2ccc(C3=NOC(c4cc(F)c(Cl)c(F)c4)(C(F)(F)F)C3)cc21` (stereo not shown) [Compound 30, 5-(5-(4-Chloro-3,5-difluorophenyl)-5-(trifluoromethyl)-4,5-dihydroisoxazol-3-yl)-3,3-dimethylbenzo[c][1,2]oxaborol-1(3H)-ol] belongs no less than 80%; to `CC1(C)OB(O)c2ccc(C3=NOC(c4cc(Br)c(F)c(Br)c4)(C(F)(F)F)C3)cc21` (stereo not shown) [Compound 32, 5-(5-(3,5-Dibromo-4-fluorophenyl)-5-(trifluoromethyl)-4,5-dihydroisoxazol-3-yl)-3,3-dimethylbenzo[c][1,2]oxaborol-1(3H)-ol], no less than 80%.

What is called mortality is the share of the test organisms that died.
